Test systems include MDA-MB-435; NCI-H522 lung; CCRF-CEM leukemia; SR leukemia; T-47D breast; SNB-19 CNS; COLO 205 colon; M14 melanoma; HCT-15 colon; U251 CNS; MDA-MB-468 breast; PC-3 prostate; SW-620 colon; HT29 colon; UO-31 renal; BT-549 breast; TK-10 renal; RXF 393 renal; SK-MEL-2 melanoma; EKVX NSCLC; SN12C renal; OVCAR-5 ovarian; SNB-75 CNS; A549 NSCLC; HOP-62 NSCLC; MCF7 breast; OVCAR-8 ovarian; A498 renal; SF-539 CNS; MDA-MB-231 breast; KM12 colon; IGROV1 ovarian; HOP-92 NSCLC; SK-MEL-5 melanoma; UACC-62 melanoma; SK-MEL-28 melanoma; CAKI-1 renal; HCC-2998 colon; ACHN renal; MOLT-4 leukemia; DU-145 prostate; SF-268 CNS; HS 578T breast; UACC-257 melanoma; SK-OV-3 ovarian; OVCAR-3 ovarian; HCT-116 colon; K-562 leukemia; NCI-H460 lung; MALME-3M melanoma; 786-0 renal; NCI-H23 lung; SF-295 CNS; OVCAR-4 ovarian; HL-60(TB) leukemia.

What all share (experiment): NCI anticancer screen, dose series, 48 h

Structures are written as SMILES.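 Growth conditions: 96-well plates. Treatment: test compound, 48 hours, 5 concentrations. Analysis: linear interpolation between bracketing concentrations; unreached endpoints set to highest concentration. The concentration for 50% growth inhibition is given as GI50. TGI: total growth inhibition.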 *1 amine or outer side, *2 acyl side, *3 side chain or, on linkers, in order; H or OH if unused. Where a SMILES comes first, the peptide text is derived from it. Bridges are numbered along the chain shown (N, C = ends). [ ]: non-standard residue; d: D form. The star is where a group is joined. Phe(3-Me) = Cc1cccc(C[C@H](N)C(=O)O)c1; NH(4-Cl-2-F-phenyl) = Fc1cc(Cl)ccc1N*; Pro(4R-Me) = C[C@H]1CN[C@H](C(=O)O)C1; Propanoyl(3-NMe2) = CN(C)CCC(=O)*; Hyp = O=C(O)[C@@H]1C[C@@H](O)CN1; aThr = C[C@H](O)[C@H](N)C(=O)O; Pip = O=C(O)[C@@H]1CCCCN1; CO = O=C([*:1])[*:2]

For the compound `COc1cc(C2CC(c3ccc(C(F)(F)F)cc3)=Nc3c(N)nc(N)nc3N2)ccc1Oc1nc(Nc2ccc(F)cc2)nc(N(C)C)n1` (configuration not stated), the GI50 with MDA-MB-435 was 4.59 µM; in the assay with NCI-H522 lung, 4.75 µM; with CCRF-CEM leukemia, 3.32 µM; with SR leukemia, 1.89 µM; with T-47D breast, 19 µM; in the assay with SNB-19 CNS, 9.14 µM. In addition, the GI50 with COLO 205 colon is 3.09 µM; in the assay with M14 melanoma, 4.41 µM; with HCT-15 colon, 3.4 µM; in the assay with U251 CNS, 4.63 µM; in the assay with MDA-MB-468 breast, 2.4 µM; with PC-3 prostate, 3.2 µM. For the same compound, the GI50 with SW-620 colon is 5.59 µM; in the assay with HT29 colon, 2.23 µM; in the assay on UO-31 renal, 3.66 µM; with BT-549 breast, 4.41 µM; with TK-10 renal it was 18 µM; in the assay on RXF 393 renal, 1.22 µM. For the same compound, the GI50 in the assay on SK-MEL-2 melanoma was 2.94 µM; in the assay with EKVX NSCLC, 4.23 µM; in the assay on SN12C renal, 6.09 µM; with OVCAR-5 ovarian, 35.2 µM; with SNB-75 CNS, 2.17 µM; in the assay with A549 NSCLC, 4.78 µM. The GI50 is 17.8 µM in the assay with HOP-62 NSCLC; 2.66 µM in the assay with MCF7 breast; 5.48 µM with OVCAR-8 ovarian; 17 µM in the assay on A498 renal; 6.1 µM in the assay with SF-539 CNS; 2.29 µM with MDA-MB-231 breast. Further, the GI50 in the assay with KM12 colon was 3.05 µM; in the assay with IGROV1 ovarian, 5 µM; in the assay with HOP-92 NSCLC, 2.1 µM; with SK-MEL-5 melanoma it was 3.32 µM; in the assay on UACC-62 melanoma, 13.1 µM; in the assay with SK-MEL-28 melanoma, 28.1 µM. Besides, the GI50 was 1.65 µM in the assay with CAKI-1 renal; 2.26 µM with HCC-2998 colon; 6.05 µM with ACHN renal; 1.71 µM in the assay on MOLT-4 leukemia; 4.9 µM with DU-145 prostate; 6.14 µM in the assay on SF-268 CNS. Besides, the GI50 with HS 578T breast is 4.77 µM; in the assay on UACC-257 melanoma, 14.1 µM; in the assay on SK-OV-3 ovarian, 63.5 µM; in the assay with OVCAR-3 ovarian, 5.46 µM; in the assay on HCT-116 colon it was 1.76 µM; with K-562 leukemia it was 1.85 µM. In addition, the GI50 in the assay on NCI-H460 lung was 2.61 µM; with MALME-3M melanoma, 2.84 µM; in the assay with 786-0 renal it was 4 µM; in the assay with NCI-H23 lung it was 16.9 µM; in the assay on SF-295 CNS, 7.12 µM; in the assay on OVCAR-4 ovarian, 3.92 µM. In the assay on HL-60(TB) leukemia, the GI50 was 2.35 µM. The TGI in the assay with MDA-MB-435 is 23.5 µM; in the assay on NCI-H522 lung, 23.3 µM; with CCRF-CEM leukemia it was more than 100 µM; in the assay with SR leukemia, 5.9 µM; with T-47D breast, more than 100 µM; in the assay on SNB-19 CNS, more than 100 µM. The TGI was 14.7 µM in the assay on COLO 205 colon; 50.7 µM in the assay with M14 melanoma; 14.6 µM in the assay with HCT-15 colon; 21.1 µM in the assay on U251 CNS; 7.79 µM with MDA-MB-468 breast; more than 100 µM in the assay with PC-3 prostate. For the same compound, the TGI was 75.2 µM in the assay on SW-620 colon; 5.86 µM with HT29 colon; more than 100 µM in the assay with UO-31 renal; 21 µM in the assay with BT-549 breast; 71 µM with TK-10 renal; 5.54 µM in the assay with RXF 393 renal. Besides, the TGI in the assay on SK-MEL-2 melanoma is 11.7 µM; with EKVX NSCLC, more than 100 µM; in the assay with SN12C renal it was 46.6 µM; with OVCAR-5 ovarian, more than 100 µM; with SNB-75 CNS it was more than 100 µM; in the assay on A549 NSCLC it was more than 100 µM. Besides, the TGI was 74.6 µM in the assay with HOP-62 NSCLC; 10.7 µM in the assay on MCF7 breast; more than 100 µM in the assay with OVCAR-8 ovarian; 89.9 µM in the assay with A498 renal; 22.1 µM in the assay on SF-539 CNS; 8.39 µM with MDA-MB-231 breast. In addition, the TGI in the assay with KM12 colon was 11.7 µM; in the assay on IGROV1 ovarian it was more than 100 µM; with HOP-92 NSCLC it was 9.46 µM; with SK-MEL-5 melanoma, 12.8 µM; with UACC-62 melanoma, 31.2 µM; with SK-MEL-28 melanoma it was more than 100 µM. Besides, the TGI was more than 100 µM with CAKI-1 renal; 5.69 µM with HCC-2998 colon; more than 100 µM with ACHN renal; more than 100 µM with MOLT-4 leukemia; more than 100 µM with DU-145 prostate; more than 100 µM in the assay with SF-268 CNS. In addition, the TGI was 96.2 µM in the assay with HS 578T breast; 76.5 µM in the assay on UACC-257 melanoma; more than 100 µM with SK-OV-3 ovarian; 21.9 µM in the assay on OVCAR-3 ovarian; 3.65 µM with HCT-116 colon; more than 100 µM with K-562 leukemia. Besides, the TGI with NCI-H460 lung was 7.19 µM; in the assay on MALME-3M melanoma, 14.2 µM; in the assay on 786-0 renal it was 16.6 µM; in the assay with NCI-H23 lung it was 74.9 µM; in the assay with SF-295 CNS, 62.1 µM; in the assay with OVCAR-4 ovarian, 33.1 µM. Also, the TGI in the assay on HL-60(TB) leukemia worked out at 47.3 µM.

Turning to `O=C(O)c1cc(Sc2ccc([N+](=O)[O-])c(C(=O)O)c2)ccc1[N+](=O)[O-]`, in the assay on MDA-MB-468 breast, the GI50 is more than 100 µM and the TGI was more than 100 µM.

For `CC[C@]12CCCN3CC[C@]4(C(=C(C(=O)OC)C1)Nc1ccccc14)[C@@H]32`, in the assay on MDA-MB-468 breast, the GI50 is 11.7 µM and the TGI was 28 µM.

Take `CC[C@@]1(O)C(=O)OCc2c1cc1n(c2=O)Cc2c-1nc1ccccc1c2/C=N/OC(C)(C)C`: in the assay on MDA-MB-468 breast, the GI50 was less than 0.01 µM and the TGI came out at 0.0592 µM.

As for `O=C1c2cccnc2C(=O)c2c1c(C(=O)OCCN1CCOCC1)c1ccccn21`, in the assay with MDA-MB-468 breast, the GI50 was 1.51 µM and the TGI was 6.74 µM.

Regarding `O=C(Nc1ccc(Br)cc1F)c1cc(Br)ccc1O`, in the assay with MDA-MB-468 breast, the GI50 was 0.873 µM and the TGI came out at 5.42 µM.

Regarding `COc1cc(C2C(C#N)=C(N)Oc3cc(O)ccc32)cc(OC)c1OC` (configuration not stated), in the assay with MDA-MB-468 breast, the GI50 was 0.28 µM and the TGI is 1.14 µM.

`O=S(=O)(NCCCNc1cc(-c2cn(-c3ccccc3)nc2-c2cccc(O)c2)ccn1)c1ccc(Cl)cc1`: in the assay with MDA-MB-468 breast, the GI50 was 1.16 µM and the TGI came to 4.56 µM.

In the case of `Cc1cccc(C[C@H](NC(=O)Nc2ccc(Cl)cc2F)C(=O)N[C@@H]2C(=O)N3C[C@H](OC(=O)CCN(C)C)C[C@H]3C(=O)N3CCCC[C@H]3C(=O)N[C@@H](C)C(=O)N3C[C@H](C)C[C@H]3C(=O)O[C@H]2C)c1` ({NH(4-Cl-2-F-phenyl)-CO}-[Phe(3-Me)][aThr][Hyp](Propanoyl(3-NMe2))[Pip]A[Pro(4R-Me)]; ester 2-C), in the assay with MDA-MB-468 breast, the GI50 was 0.255 µM and the TGI was 0.894 µM.

With `O=C(CCl)Nc1ccc2c(c1)C(=O)c1ccc(NC(=O)CCl)cc1C2=O`, in the assay on MDA-MB-468 breast, the GI50 was 0.425 µM and the TGI was determined as 1.55 µM.

As to `Cc1ccc(NC(=O)c2nc(S(C)=O)oc2-c2ccc(F)cc2)cc1Nc1nccc(-c2cccnc2)n1` (configuration not stated), in the assay with MDA-MB-468 breast, the GI50 is 2.14 µM and the TGI was determined as 4.65 µM.

`C[C@]12CC[C@H]3[C@@H](C[C@@H]4N=C(c5ccc(O)cc5)S[C@@]45C[C@H](O)CC[C@]35C)[C@@H]1CC[C@@H]2O`: in the assay with MDA-MB-468 breast, the GI50 was 5.13 µM and the TGI turned out to be 41.6 µM.

On to `CC(=O)Nc1sc2c(c1-c1nc3ccccc3s1)CNC2`, for which, in the assay with MDA-MB-468 breast, the GI50 is 1.88 µM and the TGI was 7.24 µM.

As to `COc1cc(NC(N)=NCCC(C)(C)c2ccc(C(F)(F)F)cc2)ncc1C#N`, in the assay with MDA-MB-468 breast, the GI50 is 1.24 µM and the TGI is 2.8 µM.

Regarding `COc1ccc(-c2nc(C(Cl)Cl)nc3cc(-c4ccccc4)nn23)cc1`, in the assay on MDA-MB-468 breast, the GI50 was 1.09 µM and the TGI came to 3.1 µM.

In the case of `COc1ccc(-c2nocc2-c2cc(OC)c(OC)c(OC)c2)cc1`, in the assay with MDA-MB-468 breast, the GI50 was 0.105 µM and the TGI was 18.6 µM.

Take `COc1cc2c3c(n(CCCN4CCCC4)c(=O)c2cc1OC)-c1cc2c(cc1C3=O)OCO2`: in the assay with MDA-MB-468 breast, the GI50 was 1.57 µM and the TGI turned out to be 3.17 µM.

(Values after PubChem BioAssay (NCI).)
